# Experimental data published in US20250206738A1, “WRN INHIBITORS” (Nimbus Wadjet, Inc., priority 2023, published 2025).
# Molecular target: T1, human Werner helicase (WRN, Uniprot Q14191, amino acids 517-1235 with L1074F point mutation; WRN-BV08) (Homo sapiens, UniProt Q14191, L1074F)
# T1 construct: Uniprot Q14191, amino acids 517-1235 with L1074F point mutation; 8xHis (C, cleaved yes); TEV cleavage site (ENLYFQG) (C, cleaved yes); made in house; host or cells: Sf9 insect cells (baculovirus, pFastBac)
# T1 sequence (Q14191 with tags, fused parts or gaps L1074F): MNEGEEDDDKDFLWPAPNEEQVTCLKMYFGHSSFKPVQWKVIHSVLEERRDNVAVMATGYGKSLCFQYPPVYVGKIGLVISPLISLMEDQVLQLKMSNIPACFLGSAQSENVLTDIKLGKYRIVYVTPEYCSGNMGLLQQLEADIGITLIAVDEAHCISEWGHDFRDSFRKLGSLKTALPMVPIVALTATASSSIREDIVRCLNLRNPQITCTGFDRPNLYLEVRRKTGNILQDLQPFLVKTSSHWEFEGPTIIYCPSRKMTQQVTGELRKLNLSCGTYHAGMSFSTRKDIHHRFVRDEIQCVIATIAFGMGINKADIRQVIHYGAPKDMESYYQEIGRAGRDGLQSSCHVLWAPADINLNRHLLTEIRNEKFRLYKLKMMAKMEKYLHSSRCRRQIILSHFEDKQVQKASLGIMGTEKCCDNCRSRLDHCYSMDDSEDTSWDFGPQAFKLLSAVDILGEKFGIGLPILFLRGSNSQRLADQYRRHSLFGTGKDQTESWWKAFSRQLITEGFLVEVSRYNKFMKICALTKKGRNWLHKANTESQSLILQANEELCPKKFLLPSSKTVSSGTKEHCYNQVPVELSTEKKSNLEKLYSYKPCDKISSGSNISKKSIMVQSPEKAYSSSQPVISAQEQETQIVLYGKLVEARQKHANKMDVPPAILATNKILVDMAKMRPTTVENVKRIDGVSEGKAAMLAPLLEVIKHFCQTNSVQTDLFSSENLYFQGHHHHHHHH
# Experiment: WRN (BV08) ADP-Glo assay
# Format: biochemical
# Details: WRN-BV08 (aa 517-1235, L1074F); read-out: ADP-Glo_hWRN_IC50
# Excerpt: Example 2: WRN (BV08) ADP-Glo Assay Protocol
# Bovine skin gelatin (BSG), dimethyl sulfoxide (DMSO), Pluronic F-127 and tris(2-carboxyethyl)phosphine hydrochloride solution (TCEP) were purchased from Sigma-Aldrich (St. Louis, MO) at the highest level of purity possible. Bicine buffer solution was purchased from Alfa Aesar (Tewksbury, MA) and compound NSC-617145 was purchased from Tocris (Minneapolis, MN). DNA duplex was synthesized at BGI (Shenzhen, China) and was composed of strand 1 with the sequence 5′-[…]-3′ (SEQ ID NO.: 1) and strand 2 with the sequence 5′-[…]-3′ (SEQ ID NO.: 2). DNA strands were annealed by heating to 95° C. for 5 minutes followed by slow cooling to room temperature. Compounds in 100% DMSO ([…]) were spotted into a 384-well white polystyrene Optiplate-384 (Perkin Elmer; Waltham, MA) assay plate using a LabCyte Echo 550 (Agilent; Santa Clara, CA). DMSO ([…]) was added to columns 12, rows A-H and column 24, rows I-P for the maximum signal control. Compound NSC-617145 ([…]) was added to columns 12, rows I-P and 24, rows A-H for the minimum signal control (100% inhibition). Compounds/DMSO were preincubated for 15 minutes at 25° C. with […] 2×WRN (BV08), prepared as described below, in assay buffer containing 20 mM Bicine (pH=7.5), 1 mM MgCl2, 10 mM KCl, 0.1% Pluronic F-127, 0.005% BSG, 1 mM TCEP. The reaction was initiated by the addition of […] 2× substrate mixture in assay buffer and incubated for 60 minutes at 25° C. The final concentrations of the assay components were 0.15 nM WRN, […], and 0.1 nM DNA duplex. The final DMSO concentration was 1% and the reference compound concentration (NSC-617145) used for the minimal signal control was […]. The reaction was stopped by the addition of the ADP-Glo Kit components (Promega; Madison, WI) as directed and the relative luminescence units (RLU) were read on an Envision 2104 (Perkin Elmer; Waltham, MA).
# % Inhibition Calculation:
# Where RLU=relative luminescence units, sample=signal in sample well, and MIN and MAX are the respective minimum and maximum signal controls.
# Four-Parameter IC50 Fit Equation:
# Where top and bottom are normally allowed to float but may be fixed at 100 or 0 respectively in a 3-parameter fit. Y is the % inhibition and X is the compound concentration.
# Molecular Biology and virus production. The DNA encoding human Werner helicase (Uniprot Q14191, amino acids 517-1235 with L1074F point mutation) was generated with codon-optimization for […] expression and subcloned into the pFastBac vector with a TEV cleavable 8×His tag (SEQ ID NO: 5) (WRN—BV08). The baculovirus from the expression plasmid WRN—BV08 was generated from transfection and amplification following the manufacturer's instructions.
# Sf9 cells grown in SF900II media were infected with 1:200 WRN—BV08 P2 virus and incubated for protein expression for 72 h at 27° C. The WRN protein was purified using the following protocol. The cell pellets were thawed and resuspended in buffer A (50 mM Tris, pH 7.5, 500 mM NaCl, 1 mM TCEP, 10% Glycerol) supplemented with 0.5% CHAPS, 1 mM PMSF, 1 μg/ml Leupeptin, 1 μg/ml Pepstatin, and the Pierce Universal Nuclease and cocktail tablet. Cleared lysates were loaded onto a Ni Sepharose™ excel column and washed with buffer A and bound protein was eluted with buffer A supplemented with 300 mM imidazole. The eluted protein was dialyzed against buffer A and digested by His-tagged TEV (1:5 ratio) overnight at 4° C. ZnCl2 was added into the sample at final 15 μM before loading onto a second Ni Sepharose™ excel column. Untagged WRN protein was eluted from the column with buffer A supplemented with 20 mM imidazole, dialyzed overnight into buffer B (50 mM Tris, pH 7.5, 1 mM TCEP, 10% Glycerol) supplemented with 150 mM NaCl and loaded onto a Heparin column. Proteins were eluted with a step gradient of buffer B supplemented with 150 mM, 200 mM, 300 mM and 500 mM NaCl. […]
row,Compound,IC50 [nM]
1,"CCc1c(N2CCN(C(=O)c3ncnc(C)c3O)[C@H]3CC[C@@H]32)c(=O)c2nn(C3=CCOC(C)C3)nc2n1CC(=O)NC12CC(C3CC3)(C1)C2 (stereo partly drawn) [I-162, N-{3-cyclopropylbicyclo[1.1.1]pentan-1-yl}-2-{5-ethyl-6-[(1S,6S)-5-(5-hydroxy-6-methylpyrimidine-4-carbonyl)-2,5-diazabicyclo[4.2.0]octan-2-yl]-2-(2-methyl-3,6-dihydro-2H-pyran-4-yl)-7-oxo-2H,4H,7H-[1,2,3]triazolo[4,5-b]pyridin-4-yl}acetamide]",5 to 50
2,"CCc1c(N2CCN(C(=O)c3ncnc(C)c3O)[C@H]3CC[C@@H]32)c(=O)c2nn(C3=CCC(OC)CC3)nc2n1CC(=O)NC12CC(C3CC3)(C1)C2 (stereo partly drawn) [I-163, N-{3-cyclopropylbicyclo[1.1.1]pentan-1-yl}-2-{5-ethyl-6-[(1S,6S)-5-(5-hydroxy-6-methylpyrimidine-4-carbonyl)-2,5-diazabicyclo[4.2.0]octan-2-yl]-2-(4-methoxycyclohex-1-en-1-yl)-7-oxo-2H,4H,7H-[1,2,3]triazolo[4,5-b]pyridin-4-yl}acetamide]",5 to 50
3,"CCc1c(N2CCN(C(=O)c3ncnc(C)c3O)[C@H]3CC[C@@H]32)c(=O)c2nn(-c3ccnc(C(F)(F)F)c3)nc2n1CC(=O)NC12CC(C3CC3)(C1)C2 [I-165, N-{3-cyclopropylbicyclo[1.1.1]pentan-1-yl}-2-{5-ethyl-6-[(1S,6S)-5-(5-hydroxy-6-methylpyrimidine-4-carbonyl)-2,5-diazabicyclo[4.2.0]octan-2-yl]-7-oxo-2-[2-(trifluoromethyl)pyridin-4-yl]-2H,4H,7H-[1,2,3]triazolo[4,5-b]pyridin-4-yl}acetamide]",5 to 50
4,"CCc1c(N2CCN(C(=O)c3c(OC)ncc(F)c3O)[C@H]3CC[C@@H]32)c(=O)c2nn(-c3ccnc(OC)c3)nc2n1CC(=O)NC12CC(C(C)C)(C1)C2 [I-166, 2-{5-ethyl-6-[(1S,6S)-5-(5-fluoro-4-hydroxy-2-methoxypyridine-3-carbonyl)-2,5-diazabicyclo[4.2.0]octan-2-yl]-2-(2-methoxypyridin-4-yl)-7-oxo-2H,4H,7H-[1,2,3]triazolo[4,5-b]pyridin-4-yl}-N-[3-(propan-2-yl)bicyclo[1.1.1]pentan-1-yl]acetamide]",≤ 5
5,"CCc1c(N2CCN(C(=O)c3ncnc(C)c3O)[C@H]3CC[C@@H]32)c(=O)c2nn(-c3ccnc(C(F)F)c3)nc2n1CC(=O)NC12CC(C3CC3)(C1)C2 [I-171, N-{3-cyclopropylbicyclo[1.1.1]pentan-1-yl}-2-{2-[2-(difluoromethyl)pyridin-4-yl]-5-ethyl-6-[(1S,6S)-5-(5-hydroxy-6-methylpyrimidine-4-carbonyl)-2,5-diazabicyclo[4.2.0]octan-2-yl]-7-oxo-2H,4H,7H-[1,2,3]triazolo[4,5-b]pyridin-4-yl}acetamide]",5 to 50
6,"CCc1c(N2CCN(C(=O)c3c(F)cnc(OC)c3O)[C@H]3CC[C@@H]32)c(=O)c2nn(C3=CCOCC3)nc2n1CC(=O)NC12CC(C3CC3)(C1)C2 [I-172, N-{3-cyclopropylbicyclo[1.1.1]pentan-1-yl}-2-[2-(3,6-dihydro-2H-pyran-4-yl)-5-ethyl-6-[(1S,6S)-5-(5-fluoro-3-hydroxy-2-methoxypyridine-4-carbonyl)-2,5-diazabicyclo[4.2.0]octan-2-yl]-7-oxo-2H,4H,7H-[1,2,3]triazolo[4,5-b]pyridin-4-yl]acetamide]",5 to 50
7,"CCc1c(N2CCN(C(=O)c3ncnc(C)c3O)[C@H]3CC[C@@H]32)c(=O)c2nn(C3=CCN(CC(F)F)CC3)nc2n1CC(=O)NC12CC(C3CC3)(C1)C2 [I-174, N-{3-cyclopropylbicyclo[1.1.1]pentan-1-yl}-2-{2-[1-(2,2-difluoroethyl)-1,2,3,6-tetrahydropyridin-4-yl]-5-ethyl-6-[(1S,6S)-5-(5-hydroxy-6-methylpyrimidine-4-carbonyl)-2,5-diazabicyclo[4.2.0]octan-2-yl]-7-oxo-2H,4H,7H-[1,2,3]triazolo[4,5-b]pyridin-4-yl}acetamide]",5 to 50
8,"CCc1c(N2CCN(C(=O)c3ncnc(C)c3O)[C@H]3CC[C@@H]32)c(=O)c2nn(-c3ccnc(OC)c3)cc2n1CC(=O)NC12CC(C3CC3)(C1)C2 [I-177, N-{3-cyclopropylbicyclo[1.1.1]pentan-1-yl}-2-{5-ethyl-6-[(1S,6S)-5-(5-hydroxy-6-methylpyrimidine-4-carbonyl)-2,5-diazabicyclo[4.2.0]octan-2-yl]-2-(2-methoxypyridin-4-yl)-7-oxo-2H,4H,7H-pyrazolo[4,3-b]pyridin-4-yl}acetamide]",5 to 50

# Continued, values first:
row,IC50 [nM],Compound
1,5 to 50,"CCc1c(N2CCN(C(=O)c3c(OC)ccc4ncoc34)[C@H]3CC[C@@H]32)c(=O)c2nn(C3=CCOCC3)nc2n1CC(=O)NC12CC(C3CC3)(C1)C2 [I-180, N-{3-cyclopropylbicyclo[1.1.1]pentan-1-yl}-2-[2-(3,6-dihydro-2H-pyran-4-yl)-5-ethyl-6-[(1S,6S)-5-(6-methoxy-1,3-benzoxazole-7-carbonyl)-2,5-diazabicyclo[4.2.0]octan-2-yl]-7-oxo-2H,4H,7H-[1,2,3]triazolo[4,5-b]pyridin-4-yl]acetamide]"
2,5 to 50,"CCc1c(N2CCN(C(=O)c3c(O)c(F)cc4ncoc34)[C@H]3CC[C@@H]32)c(=O)c2nn(C3=CCOCC3)nc2n1CC(=O)NC12CC(C3CC3)(C1)C2 [I-182, N-{3-cyclopropylbicyclo[1.1.1]pentan-1-yl}-2-[2-(3,6-dihydro-2H-pyran-4-yl)-5-ethyl-6-[(1S,6S)-5-(5-fluoro-6-hydroxy-1,3-benzoxazole-7-carbonyl)-2,5-diazabicyclo[4.2.0]octan-2-yl]-7-oxo-2H,4H,7H-[1,2,3]triazolo[4,5-b]pyridin-4-yl]acetamide]"
3,≤ 5,"CCc1c(N2CCN(C(=O)c3ncnc(C)c3O)[C@H]3CC[C@@H]32)c(=O)c2nn(-c3ccnc(OC)c3)nc2n1CC(=O)NC12CC(C3CCCC3)(C1)C2 [I-183, N-{3-cyclopentylbicyclo[1.1.1]pentan-1-yl}-2-{5-ethyl-6-[(1S,6S)-5-(5-hydroxy-6-methylpyrimidine-4-carbonyl)-2,5-diazabicyclo[4.2.0]octan-2-yl]-2-(2-methoxypyridin-4-yl)-7-oxo-2H,4H,7H-[1,2,3]triazolo[4,5-b]pyridin-4-yl}acetamide]"
4,5 to 50,"CCc1c(N2CCN(C(=O)c3ncnc(C)c3O)[C@H]3CC[C@@H]32)c(=O)c2nn(C3=CCOCC3)nc2n1CC(=O)NC12CC(C(C)(C)C)(C1)C2 [I-184, N-{3-tert-butylbicyclo[1.1.1]pentan-1-yl}-2-[2-(3,6-dihydro-2H-pyran-4-yl)-5-ethyl-6-[(1S,6S)-5-(5-hydroxy-6-methylpyrimidine-4-carbonyl)-2,5-diazabicyclo[4.2.0]octan-2-yl]-7-oxo-2H,4H,7H-[1,2,3]triazolo[4,5-b]pyridin-4-yl]acetamide]"
